Read-outs that look alike come from different tables or passages of the source.
Key:
[1] = Caco-2 bidirectional permeability assay; type: in vitro ADME; details: human
Protocol: (§1) Cell membrane permeability is an important drug characteristic. Typically, a drug candidate is test in a Caco-2 cell transmembrane permeability assay. Compound 3 was tested in a bidirectional permeability assay, and the results are shown in Table V. The data are consistent with the representative compound having good cellular membrane permeability, and the efflux ratio is consistent with active efflux of the drug from cell. The study was conducted using standard techniques known in the art.

Caco-2 cell = assay: Caco-2 bidirectional permeability assay; type: in vitro ADME; details: Caco-2
Protocol: as §1

Microsomal stability [2] = type: in vitro ADME, human; details: for Compound Remaining: human microsomes 0.5 mg protein/mL, 1 μM
Protocol: (§2) Data were also obtained for the stability of Compound 3 when incubated with a microsomal preparation. Drug metabolism can occur, at least in part, in cellular microsomes, and thus the assay assesses the stability of drug to metabolic modification. The concentration of compound 3 was 1 μM in the assay system and the indicated microsomes were present at 0.5 mg total protein per milliliter. The concentration of intact drug was determined at the indicated timepoints using a LC-MS/MS assay. The enzyme activity of the microsomes used in this study were assessed using a positive control, testosterone.

Microsomal stability [3] = type: in vitro ADME, mouse; details: for Compound Remaining: mouse microsomes 0.5 mg protein/mL, 1 μM; for half-life at 1 μM: mouse, microsomes
Protocol: as §2

[4] = Glutathione (GSH) trapping assay; type: in vitro ADME; details: peak area vs intact compound 3 at time zero, 1 mg/mL human liver microsomal protein
From the text: Drug metabolism in vivo can lead to reactive intermediates that form covalent adducts with cellular materials. Such covalent binding of reactive metabolites is potentially involved in severe adverse drug reactions. However, the covalent binding assay is of low throughput and costly, a qualitative trapping assay measuring trapping of drug glutathione conjugates in human liver microsomes can provide information on the propensity of a drug candidate to be involved in covalent binding reactions. A glutathione (GSH) trapping assay was carried out on representative disclosed compound, compound 3, and the results are shown in Table VIII. […] The assay was carried out with 1 mg total human liver microsomal protein per milliliter.

HERG channel = molecular target: T1, HERG channel (Homo sapiens, UniProt Q12809); assay: Predictor hERG Fluorescence Polarization Assay; type: binding; details: membrane preparation with overexpressed HERG channels, 10-point, duplicate
T1 construct: purchased Invitrogen; host or cells: membrane preparation with overexpressed HERG channels
Protocol: The activity of a representative disclosed compound, compound 3 (N-(3-(6-((3-morpholinophenyl)amino)-1H-pyrazolo[3,4-d]pyrimidin-4-yl)phenyl)acrylamide), was evaluated in a HERG channel assay. Briefly, the compounds were assessed using the Invitrogen Predictor™ hERG Fluorescence Polarization Assay with excitation at 530 nm and emission at 580 nm using a membrane preparation with overexpressed HERG channels. The compound was tested in a 10-point dose response curves in duplicate and using E-4031 (N-[4-[[1-[2-(6-Methyl-2-pyridinyl)ethyl]-4-piperidinyl]carbonyl]phenyl]methanesulfonamide dihydrochloride), a known HERG channel inhibitor, as an assay positive control. The data are shown in FIG. 6, and the figure showns the average inhibition versus the compound.

Pharmacokinetics in mice = type: in vivo; details: mouse, plasma
Protocol: The pharmacokinetic behavior of a representative disclosed compound, compound 3 (N-(3-(6-((3-morpholinophenyl)amino)-1H-pyrazolo[3,4-d]pyrimidin-4-yl)phenyl)acrylamide), which corresponds to compound 3 in Table I, was evaluated in mice. As used herein, “test compound” refers to compound 3. The study was carried out using three animals per dosing group. Animals were dosed as follows: a) Group 1 were administered 5 mg/kg of test compound by i.v. administration; b) Group 2 were dosed at 10 mg/kg by oral gavage using the base form of the test compound; and c) Group 3 were dosed at 10 mg/kg by oral gavage using a HCl salt of the test compound. Plasma concentration of the test compound was determined on samples take at the following time points: 0.08, 0.25, 0.50, 1, 2, 4, 8, and 24 hrs. Individual values were within 25% of the mean.

[5] = po, 10 mg/kg, p.o. (HCl salt), 10 mg/kg oral gavage
[6] = po, 10 mg/kg, p.o. (base form), 10 mg/kg oral gavage

T1 sequence (Q12809 whole entry): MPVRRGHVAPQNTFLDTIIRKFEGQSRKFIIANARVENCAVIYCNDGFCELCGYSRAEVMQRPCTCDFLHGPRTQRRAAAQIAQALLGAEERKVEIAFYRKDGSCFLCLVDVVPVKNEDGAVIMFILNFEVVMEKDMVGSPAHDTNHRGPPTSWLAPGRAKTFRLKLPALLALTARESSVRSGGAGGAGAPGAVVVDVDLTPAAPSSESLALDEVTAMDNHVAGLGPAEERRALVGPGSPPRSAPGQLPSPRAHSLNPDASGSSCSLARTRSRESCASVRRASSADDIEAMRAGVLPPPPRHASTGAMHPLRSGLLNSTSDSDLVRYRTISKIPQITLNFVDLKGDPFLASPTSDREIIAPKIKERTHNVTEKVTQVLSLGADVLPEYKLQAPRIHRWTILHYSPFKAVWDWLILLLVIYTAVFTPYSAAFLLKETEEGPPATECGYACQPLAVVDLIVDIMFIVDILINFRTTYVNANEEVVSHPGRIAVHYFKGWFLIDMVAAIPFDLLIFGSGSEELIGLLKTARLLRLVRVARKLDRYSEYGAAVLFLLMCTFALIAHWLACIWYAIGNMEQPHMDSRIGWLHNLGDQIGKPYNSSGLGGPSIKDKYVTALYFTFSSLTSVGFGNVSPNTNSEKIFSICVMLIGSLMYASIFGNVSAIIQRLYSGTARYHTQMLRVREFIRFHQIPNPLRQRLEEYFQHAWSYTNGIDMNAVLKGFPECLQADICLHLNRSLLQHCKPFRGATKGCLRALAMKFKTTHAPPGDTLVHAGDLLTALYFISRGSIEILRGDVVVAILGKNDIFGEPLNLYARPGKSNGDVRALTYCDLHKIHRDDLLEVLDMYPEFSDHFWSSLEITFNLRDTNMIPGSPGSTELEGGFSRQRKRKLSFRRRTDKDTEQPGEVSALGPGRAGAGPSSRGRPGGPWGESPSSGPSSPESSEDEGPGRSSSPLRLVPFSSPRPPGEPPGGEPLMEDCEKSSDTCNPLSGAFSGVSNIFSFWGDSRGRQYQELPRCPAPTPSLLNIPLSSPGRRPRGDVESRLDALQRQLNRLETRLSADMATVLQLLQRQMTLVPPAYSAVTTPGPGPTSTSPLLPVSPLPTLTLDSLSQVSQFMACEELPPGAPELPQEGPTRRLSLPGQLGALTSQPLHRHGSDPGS

Question: For `C=CC(=O)Nc1cccc(-c2nc(Nc3cccc(N4CCOCC4)c3)nc3[nH]ncc23)c1` [Compound 3, N-(3-(6-((3-morpholinophenyl)amino)-1H-pyrazolo[3,4-d]pyrimidin-4-yl)phenyl)acrylamide], which efflux ratio ([1]; Caco-2) is on record?
Answer: Its efflux ratio is 6.

Question: And the recovery ([1]; Caco-2, Caco-2, A-B, read-out: % Recovery A-B)?
Answer: The recovery was 41%.

Question: And the recovery ([1]; Caco-2, Caco-2, B-A, read-out: % Recovery B-A)?
Answer: The recovery was 84%.

Question: And the Papp A→B ([1]; Caco-2, A-B)?
Answer: The Papp A→B was 5.81 ×10⁻⁶ cm/s.

Question: And the Papp B→A ([1]; Caco-2, B-A)?
Answer: The Papp B→A was 34.9 ×10⁻⁶ cm/s.

Question: And the “Permeability Classification” value (Caco-2 cell)?
Answer: Its value is “High”.

Question: And the “Significant Efflux” value (Caco-2 cell)?
Answer: The value was “Yes”.

Question: What about the half-life at 1 μM (Microsomal stability [2]; human microsomes) of the same molecule?
Answer: The half-life at 1 μM was 16 min.

Question: And the “Compound Remaining” value (Microsomal stability [2]; 0 min)?
Answer: The value was 100 % of initial amount.

Question: And the “Compound Remaining” value (Microsomal stability [2]; 10 min)?
Answer: Its value is 61.1 % of initial amount.

Question: And the “Compound Remaining” value (Microsomal stability [2]; 20 min)?
Answer: Its value is 36.0 % of initial amount.

Question: And the “Compound Remaining” value (Microsomal stability [2]; 30 min)?
Answer: Its value is 20.4 % of initial amount.

Question: And the “Compound Remaining” value (Microsomal stability [2]; 60 min)?
Answer: Its value is 7.89 % of initial amount.

Question: What about the microsomal CLint at 1 μM (Microsomal stability [2]; human microsomes, read-out: CLinit (intrinsic clearance)) of the same molecule?
Answer: The microsomal CLint at 1 μM was 85 µL/min/mg.

Question: And the “Compound Remaining” value (Microsomal stability [3]; 0 min)?
Answer: Its value is 100 % of initial amount.

Question: What about the “Compound Remaining” value (Microsomal stability [3]; 10 min) of the same molecule?
Answer: Its value is 24.3 % of initial amount.

Question: What about the “Compound Remaining” value (Microsomal stability [3]; 20 min) of the same molecule?
Answer: The value was 6.12 % of initial amount.

Question: What about the “Compound Remaining” value (Microsomal stability [3]; 30 min) of the same molecule?
Answer: Its value is 1.62 % of initial amount.

Question: What about the “Compound Remaining” value (Microsomal stability [3]; 60 min) of the same molecule?
Answer: Its value is 0.72 % of initial amount.

Question: What about the microsomal CLint at 1 μM (Microsomal stability [3]; mouse microsomes, read-out: CLinit (intrinsic clearance)) of the same molecule?
Answer: Its microsomal CLint at 1 μM is 160 µL/min/mg.

Question: What about the half-life at 1 μM (Microsomal stability [3]; mouse microsomes, expressed as < shortest incubation time, read-out: t1/2) of the same molecule?
Answer: Its half-life at 1 μM is less than 10 min.

Question: And the half-life at 1 μM (Microsomal stability [3]; mouse microsomes, read-out: t1/2, calculated half-life in parentheses)?
Answer: The half-life at 1 μM was 8.6 min.

Question: What about the “% Compared to Parent Compound, 0 min” value ([4]; 0 min) of the same molecule?
Answer: Its value is 100%.

Question: And the “% Compared to Parent Compound, 60 min” value ([4]; 60 min)?
Answer: The value was 47%.

Question: And the IC50 (HERG channel)?
Answer: Its IC50 is greater than 10 µM.

Question: And the Cmax (Pharmacokinetics in mice; iv, 5 mg/kg)?
Answer: Its Cmax is 3520 ng/mL.

Question: What about the Tmax (Pharmacokinetics in mice; iv, 5 mg/kg) of the same molecule?
Answer: The Tmax was 4.8 min.

Question: What about the clearance (Pharmacokinetics in mice; iv, 5 mg/kg) of the same molecule?
Answer: Its clearance is 67 mL/min/kg.

Question: What about the half-life (Pharmacokinetics in mice; iv, 5 mg/kg) of the same molecule?
Answer: Its half-life is 90 min.

Question: And the AUC(0-t) (Pharmacokinetics in mice; iv, 5 mg/kg, i.v., 5 mg/kg, read-out: AUC0-4)?
Answer: The AUC(0-t) was 1180 ng·h/mL.

Question: What about the AUC(0-t) (Pharmacokinetics in mice; iv, 5 mg/kg, i.v., 5 mg/kg, read-out: AUC0-t) of the same molecule?
Answer: The AUC(0-t) was 1230 ng·h/mL.

Question: What about the Vd (Pharmacokinetics in mice; iv, 5 mg/kg, read-out: Vss) of the same molecule?
Answer: The Vd was 2.6 L/kg.

Question: And the Cmax (Pharmacokinetics in mice; [5])?
Answer: Its Cmax is 465 ng/mL.

Question: And the Tmax (Pharmacokinetics in mice; [5])?
Answer: The Tmax was 15 min.

Question: What about the bioavailability (Pharmacokinetics in mice; [5]) of the same molecule?
Answer: Its bioavailability is 3%.

Question: And the AUC(0-t) (Pharmacokinetics in mice; po, 10 mg/kg, p.o. (HCl salt), 10 mg/kg oral gavage, read-out: AUC0-4)?
Answer: The AUC(0-t) was 357 ng·h/mL.

Question: And the Cmax (Pharmacokinetics in mice; [6])?
Answer: Its Cmax is 299 ng/mL.

Question: What about the Tmax (Pharmacokinetics in mice; [6]) of the same molecule?
Answer: Its Tmax is 30 min.

Question: What about the bioavailability (Pharmacokinetics in mice; [6]) of the same molecule?
Answer: Its bioavailability is 2.3%.

Question: What about the AUC(0-t) (Pharmacokinetics in mice; po, 10 mg/kg, p.o. (base form), 10 mg/kg oral gavage, read-out: AUC0-4) of the same molecule?
Answer: The AUC(0-t) was 270 ng·h/mL.
